In the kinase profiling compilation of Christmann-Franck et al. (2016) one finds residual activity data, which are given here for one compound.

Holding throughout (assay): Caliper, Mobility shift assay off-chip
In one experiment the target is RPS6KA2 KD1 KD2 (human) (UniProt Q15349). The settings on record: compound 1.0 µM.
A further experiment concerns ROCK2 (rat). The settings on record: compound 1.0 µM; accession and sequence are those of the human protein.
The target in a further experiment is PLK2 (human) (UniProt Q9NYY3). The following applies: compound 1.0 µM.
Chain of PLK2 (human) (Q9NYY3 whole entry, looked up): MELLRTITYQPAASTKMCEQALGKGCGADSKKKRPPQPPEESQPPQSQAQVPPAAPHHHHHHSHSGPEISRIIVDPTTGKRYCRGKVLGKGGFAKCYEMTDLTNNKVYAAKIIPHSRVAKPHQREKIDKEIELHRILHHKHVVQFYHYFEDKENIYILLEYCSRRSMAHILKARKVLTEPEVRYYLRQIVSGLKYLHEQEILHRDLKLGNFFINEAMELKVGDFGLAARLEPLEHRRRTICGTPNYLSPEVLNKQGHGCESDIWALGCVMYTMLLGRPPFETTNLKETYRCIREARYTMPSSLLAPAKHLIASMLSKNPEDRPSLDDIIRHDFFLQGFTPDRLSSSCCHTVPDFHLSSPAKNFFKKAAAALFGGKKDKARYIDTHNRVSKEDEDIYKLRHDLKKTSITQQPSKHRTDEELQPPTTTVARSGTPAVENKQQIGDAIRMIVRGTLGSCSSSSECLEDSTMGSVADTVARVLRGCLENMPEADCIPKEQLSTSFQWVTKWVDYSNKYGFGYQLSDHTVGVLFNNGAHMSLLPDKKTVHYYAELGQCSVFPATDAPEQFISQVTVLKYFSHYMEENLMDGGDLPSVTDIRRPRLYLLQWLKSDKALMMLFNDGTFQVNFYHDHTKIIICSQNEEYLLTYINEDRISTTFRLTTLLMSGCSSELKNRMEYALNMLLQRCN
In the next experiment the target is MINK1 (human) (UniProt Q8N4C8). The settings on record: compound 1.0 µM.
The next experiment addresses MET (human) (UniProt P08581). The following applies: compound 1.0 µM.
In another experiment the target is IRAK4 (human) (UniProt Q9NWZ3). The following applies: compound 1.0 µM.
A further experiment addresses PRKD1 (human) (UniProt Q15139). The following applies: compound 1.0 µM.
In a further experiment the target is PRKCH (human) (UniProt P24723). The following applies: compound 1.0 µM.
The next experiment addresses MAP2K1 (human) (UniProt Q02750). The following applies: compound 1.0 µM.
The next experiment addresses FLT1 (human) (UniProt P17948). The settings on record: compound 1.0 µM.
The target in another experiment is CDK5 CDK5R1 p25 (human) (UniProt Q15078+Q00535). The following applies: compound 1.0 µM.
A further experiment concerns MAPK1 (mouse). The following applies: compound 1.0 µM; accession and sequence are those of the human protein.
The target in the next experiment is NUAK1 (human) (UniProt O60285). The following applies: compound 1.0 µM.
Another experiment concerns the target ROS1 (human) (UniProt P08922). The settings on record: compound 1.0 µM.
A further experiment has as its target CDK7 CCNH MNAT1 (human) (UniProt P50613+P51948+P51946). The following applies: compound 1.0 µM.
For another experiment, the system named is PRKACA (cow). The settings on record: compound 1.0 µM; accession and sequence are those of the human protein.
A further experiment deals with MARK2 (human) (UniProt Q7KZI7). The following applies: compound 1.0 µM.
Chain of MARK2 (human) (Q7KZI7 whole entry, looked up): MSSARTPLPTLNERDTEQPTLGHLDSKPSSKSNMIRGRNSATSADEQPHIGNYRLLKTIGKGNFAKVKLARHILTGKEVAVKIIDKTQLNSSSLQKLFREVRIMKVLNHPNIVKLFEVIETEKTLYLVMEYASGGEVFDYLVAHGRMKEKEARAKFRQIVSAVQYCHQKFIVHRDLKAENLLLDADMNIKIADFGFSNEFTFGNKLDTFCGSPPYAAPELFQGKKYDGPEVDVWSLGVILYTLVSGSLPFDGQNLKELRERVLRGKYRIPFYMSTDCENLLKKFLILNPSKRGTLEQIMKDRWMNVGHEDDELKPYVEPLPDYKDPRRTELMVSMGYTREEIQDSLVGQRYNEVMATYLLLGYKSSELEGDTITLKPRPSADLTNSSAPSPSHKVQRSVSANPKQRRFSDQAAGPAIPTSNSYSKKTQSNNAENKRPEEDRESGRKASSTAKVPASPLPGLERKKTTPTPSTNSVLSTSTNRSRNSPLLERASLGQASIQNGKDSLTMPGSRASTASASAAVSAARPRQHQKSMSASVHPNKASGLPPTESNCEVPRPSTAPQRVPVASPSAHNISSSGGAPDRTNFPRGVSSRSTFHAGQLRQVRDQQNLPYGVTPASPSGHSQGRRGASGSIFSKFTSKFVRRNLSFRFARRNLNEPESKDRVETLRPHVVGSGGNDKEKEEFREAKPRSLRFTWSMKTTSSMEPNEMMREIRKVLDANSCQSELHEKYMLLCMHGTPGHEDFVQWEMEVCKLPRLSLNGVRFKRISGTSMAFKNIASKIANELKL
In another experiment the test system is RPS6KA1 KD1 KD2 (rat). The settings on record: compound 1.0 µM; accession and sequence are those of the human protein.
A further experiment deals with BLK (mouse). The settings on record: compound 1.0 µM; accession and sequence are those of the human protein.

Chain of CDK7 CCNH MNAT1 (human) (P50613 whole entry, looked up): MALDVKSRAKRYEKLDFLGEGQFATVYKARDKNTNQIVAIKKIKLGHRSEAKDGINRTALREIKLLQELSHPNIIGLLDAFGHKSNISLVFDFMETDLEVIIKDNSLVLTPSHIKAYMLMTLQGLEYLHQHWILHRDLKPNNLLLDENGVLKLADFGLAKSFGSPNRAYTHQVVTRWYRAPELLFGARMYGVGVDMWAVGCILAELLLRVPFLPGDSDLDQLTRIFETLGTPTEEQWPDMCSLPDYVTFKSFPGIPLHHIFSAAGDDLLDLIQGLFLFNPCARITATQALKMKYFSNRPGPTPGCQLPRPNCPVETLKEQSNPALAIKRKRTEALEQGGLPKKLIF
Chain of CDK7 CCNH MNAT1 (human) (P51946 whole entry, looked up): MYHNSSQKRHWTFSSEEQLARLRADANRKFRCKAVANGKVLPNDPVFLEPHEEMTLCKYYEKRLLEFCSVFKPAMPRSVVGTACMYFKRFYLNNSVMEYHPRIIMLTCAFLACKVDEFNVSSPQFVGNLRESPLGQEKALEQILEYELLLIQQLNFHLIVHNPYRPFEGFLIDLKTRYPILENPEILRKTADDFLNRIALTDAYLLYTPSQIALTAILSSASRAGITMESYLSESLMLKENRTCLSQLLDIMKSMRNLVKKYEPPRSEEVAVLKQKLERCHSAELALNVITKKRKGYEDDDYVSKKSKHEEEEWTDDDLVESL
Chain of CDK7 CCNH MNAT1 (human) (P51948 whole entry, looked up): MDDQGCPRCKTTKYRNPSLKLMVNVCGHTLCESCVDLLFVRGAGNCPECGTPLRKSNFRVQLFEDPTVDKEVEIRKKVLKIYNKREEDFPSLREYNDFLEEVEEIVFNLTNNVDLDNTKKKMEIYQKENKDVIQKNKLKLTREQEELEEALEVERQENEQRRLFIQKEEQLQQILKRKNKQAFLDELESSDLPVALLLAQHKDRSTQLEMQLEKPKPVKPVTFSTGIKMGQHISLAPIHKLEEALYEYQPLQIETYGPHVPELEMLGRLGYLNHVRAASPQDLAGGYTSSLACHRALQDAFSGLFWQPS
Chain of RPS6KA2 KD1 KD2 (human) (Q15349 whole entry, looked up): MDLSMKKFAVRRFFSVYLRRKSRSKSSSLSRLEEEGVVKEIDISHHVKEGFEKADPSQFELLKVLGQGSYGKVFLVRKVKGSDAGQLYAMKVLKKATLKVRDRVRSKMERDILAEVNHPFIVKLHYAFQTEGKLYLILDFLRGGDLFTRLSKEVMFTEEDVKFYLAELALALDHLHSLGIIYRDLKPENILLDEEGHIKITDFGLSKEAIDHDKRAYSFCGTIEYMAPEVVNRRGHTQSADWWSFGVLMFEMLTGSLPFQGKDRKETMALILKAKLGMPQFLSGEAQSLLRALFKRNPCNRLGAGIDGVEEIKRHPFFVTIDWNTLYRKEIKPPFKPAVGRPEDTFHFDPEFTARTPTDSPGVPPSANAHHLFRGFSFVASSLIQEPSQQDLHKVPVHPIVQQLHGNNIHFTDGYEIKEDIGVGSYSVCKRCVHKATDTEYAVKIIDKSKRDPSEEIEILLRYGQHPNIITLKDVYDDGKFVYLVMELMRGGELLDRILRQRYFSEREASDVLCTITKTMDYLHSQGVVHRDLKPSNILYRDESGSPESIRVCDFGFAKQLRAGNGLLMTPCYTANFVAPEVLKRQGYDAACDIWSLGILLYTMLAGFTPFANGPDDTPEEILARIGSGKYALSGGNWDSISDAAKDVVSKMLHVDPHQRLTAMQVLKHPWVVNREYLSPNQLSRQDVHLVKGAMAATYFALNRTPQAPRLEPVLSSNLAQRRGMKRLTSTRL
Chain of MAP2K1 (human) (Q02750 whole entry, looked up): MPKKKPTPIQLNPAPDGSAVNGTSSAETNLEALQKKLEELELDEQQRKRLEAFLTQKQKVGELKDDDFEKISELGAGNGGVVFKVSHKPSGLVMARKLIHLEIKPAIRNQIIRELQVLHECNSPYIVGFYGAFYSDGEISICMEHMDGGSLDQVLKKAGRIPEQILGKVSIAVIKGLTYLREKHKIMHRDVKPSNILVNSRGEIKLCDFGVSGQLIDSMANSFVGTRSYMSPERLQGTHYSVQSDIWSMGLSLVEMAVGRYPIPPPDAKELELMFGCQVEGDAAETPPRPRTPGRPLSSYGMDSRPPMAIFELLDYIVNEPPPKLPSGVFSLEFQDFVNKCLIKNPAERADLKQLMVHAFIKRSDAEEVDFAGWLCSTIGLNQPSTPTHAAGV
Chain of FLT1 (human) (P17948 whole entry, looked up): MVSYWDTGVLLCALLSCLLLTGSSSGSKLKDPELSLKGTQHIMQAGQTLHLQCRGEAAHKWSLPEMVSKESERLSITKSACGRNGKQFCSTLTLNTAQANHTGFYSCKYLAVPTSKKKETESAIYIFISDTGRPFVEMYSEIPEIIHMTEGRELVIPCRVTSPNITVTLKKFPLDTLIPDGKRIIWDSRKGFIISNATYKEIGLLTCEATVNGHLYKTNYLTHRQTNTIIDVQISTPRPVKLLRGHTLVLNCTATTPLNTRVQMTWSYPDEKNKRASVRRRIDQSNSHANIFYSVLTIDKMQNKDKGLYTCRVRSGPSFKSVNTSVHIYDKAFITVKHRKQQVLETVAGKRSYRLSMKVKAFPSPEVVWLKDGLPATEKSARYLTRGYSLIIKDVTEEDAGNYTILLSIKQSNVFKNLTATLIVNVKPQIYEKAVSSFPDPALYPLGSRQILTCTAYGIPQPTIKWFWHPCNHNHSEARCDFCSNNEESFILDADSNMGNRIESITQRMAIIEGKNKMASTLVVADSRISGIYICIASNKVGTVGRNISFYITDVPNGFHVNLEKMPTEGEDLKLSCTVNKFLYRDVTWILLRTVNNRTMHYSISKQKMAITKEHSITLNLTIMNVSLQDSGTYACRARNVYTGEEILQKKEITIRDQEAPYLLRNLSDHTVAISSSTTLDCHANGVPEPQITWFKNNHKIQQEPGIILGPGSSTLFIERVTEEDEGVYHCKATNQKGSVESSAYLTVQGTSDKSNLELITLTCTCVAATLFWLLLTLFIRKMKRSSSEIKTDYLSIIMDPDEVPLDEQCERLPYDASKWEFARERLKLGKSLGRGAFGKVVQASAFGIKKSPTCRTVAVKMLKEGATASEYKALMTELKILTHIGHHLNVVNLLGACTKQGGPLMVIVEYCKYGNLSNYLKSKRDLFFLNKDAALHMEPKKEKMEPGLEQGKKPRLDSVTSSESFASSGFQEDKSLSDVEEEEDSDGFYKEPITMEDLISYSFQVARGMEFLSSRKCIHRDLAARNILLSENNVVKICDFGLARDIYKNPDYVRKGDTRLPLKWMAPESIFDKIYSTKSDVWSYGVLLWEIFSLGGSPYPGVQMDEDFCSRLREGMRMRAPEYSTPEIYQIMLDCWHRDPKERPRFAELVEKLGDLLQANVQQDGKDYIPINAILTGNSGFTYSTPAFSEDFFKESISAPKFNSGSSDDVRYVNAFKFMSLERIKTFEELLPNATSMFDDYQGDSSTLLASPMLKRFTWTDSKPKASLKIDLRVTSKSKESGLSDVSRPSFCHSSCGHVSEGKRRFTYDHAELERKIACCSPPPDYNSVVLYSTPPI

Regarding `Cc1n[nH]c2c1c(=O)n(CCCN)c1ccc(Cl)cc21`, the residual activity is 2% on RPS6KA2 KD1 KD2 (human); 88% with ROCK2 (rat); 102% at PLK2 (human); 134% on MINK1 (human); 117% at MET (human); 85% at IRAK4 (human). The residual activity at PRKD1 (human) came to 20%; on PRKCH (human), 95%; on MAP2K1 (human) it was 97%; at FLT1 (human), 86%; on CDK5 CDK5R1 p25 (human), 108%; in the experiment with MAPK1 (mouse), 90%. Also, the residual activity at NUAK1 (human) was found to be 4%; at ROS1 (human), 95%; at CDK7 CCNH MNAT1 (human), 55%; in the experiment with PRKACA (cow), 81%; at MARK2 (human), 7%; in the experiment with RPS6KA1 KD1 KD2 (rat) it was 6%. In the experiment on BLK (mouse), the residual activity stood at 92%.

Usually residual activity stands for the signal under treatment as a percentage of the control signal.
